Data set [1] has as its target T1, Bifunctional epoxide hydrolase 2 (Mus musculus, UniProt P34914).
T1 sequence (P34914 whole entry): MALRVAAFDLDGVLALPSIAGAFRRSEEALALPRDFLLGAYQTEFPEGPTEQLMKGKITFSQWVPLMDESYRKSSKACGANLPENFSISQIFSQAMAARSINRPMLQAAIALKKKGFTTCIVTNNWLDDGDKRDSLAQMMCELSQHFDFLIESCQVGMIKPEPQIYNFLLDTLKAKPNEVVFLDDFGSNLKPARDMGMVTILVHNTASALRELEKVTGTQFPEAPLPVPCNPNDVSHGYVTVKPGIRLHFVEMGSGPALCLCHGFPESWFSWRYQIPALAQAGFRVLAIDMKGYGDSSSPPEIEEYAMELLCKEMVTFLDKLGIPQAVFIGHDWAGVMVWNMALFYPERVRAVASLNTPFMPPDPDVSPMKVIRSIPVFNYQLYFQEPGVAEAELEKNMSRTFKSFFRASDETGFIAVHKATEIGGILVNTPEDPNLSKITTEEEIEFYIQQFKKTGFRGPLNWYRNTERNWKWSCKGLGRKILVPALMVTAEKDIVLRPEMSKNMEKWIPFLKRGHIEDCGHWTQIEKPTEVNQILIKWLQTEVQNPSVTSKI
Kind of data set: Inhibition of mouse recombinant sEH using fluorogenic substrate.

The test system of a further data set is HepG2. Kind of data set: Cytotoxicity against human HepG2 cells assessed as cell viability at 1 uM incubated for 24 hrs by MTT assay. The conditions noted are these: HepG2, 24 h, read-out: Activity.
A short description of data set [2]: Chemical stability of compound in cell culture medium assessed as parent compound remaining measured for 24 hrs by LC-MS analysis. In kind it is physicochemical. The conditions noted are these: read-out: Stability.

In the case of `O=C1CCC(N2Cc3cc(N4CCN(C(=O)CCCCCCCCNC(=O)c5ccc(O[C@H]6CC[C@H](NC(=O)Nc7ccc(OC(F)(F)F)cc7)CC6)cc5)CC4)ccc3C2=O)C(=O)N1` (stereo partly drawn), the half-inhibitory concentration (IC50) in data set [1] came to 2.8 nM. Also, the viability at 1 µM in the data set with HepG2 was 46%. For the same compound, the remaining at 24 h in data set [2] came out at 57%.

What is called IC50 is the concentration needed to halve the response being measured.
